Assay results published in publication PMC7567103 (Nature Communications, 2020).

Columns and labels:
[1] = target: T1, GHRHR T213A (Homo sapiens, UniProt Q02643, T213A); experiment: cAMP accumulation, T213A; format: cell-based; details: mean ± SEM, n ≥ 3
T1 construct: GHRHR(23-423)-; HA signal peptide (replaces native signal M1-G22) (N); expressed in transfected cells; host or cells: HEK 293T, pcDNA3.1, transient
Source text: (§1) Fig. 2 Molecular recognition of GHRH by GHRHR and comparison of that with LA-PTH–PTH1R and GLP-1–GLP-1R. a Detailed interaction between GHRH and the TMD pocket of GHRHR with hydrogen bonds shown as dotted lines. b, c Pairwise comparison of GHRH bound to GHRHR with GLP-1 and LA-PTH in complex with their corresponding receptors, showing the relative positions of peptide ligands. Lime green, GHRHR; blue, GHRH; red, PTH1R and LA-PTH; purple, GLP-1R and GLP-1. d–f The effects of mutation in the ligand-binding pocket on cAMP accumulation. cAMP levels were measured in wild-type (WT) receptor and alanine mutants in ECL1, 2, and 3 (d), TM1, 2, and 3 (e), and TM5, 6, and 7 (f). cAMP signals were normalized to the maximum response of WT and concentration–response curves were analyzed using a three-parameter logistic equation. Data shown are means ± S.E.M. of at least three independent experiments (n = 3–5), conducted in triplicate. Source data are provided as a Source data file.
(§2) GHRH-stimulated cAMP accumulation was measured by a LANCE Ultra cAMP kit (PerkinElmer). […] After 1 h RT incubation, TR-FRET signals (excitation: 320 nm, emission: 615 and 665 nm) were measured by an EnVision (PerkinElmer).

[2] = target: T2, GHRHR A271R (Homo sapiens, UniProt Q02643, A271R); experiment: cAMP accumulation, A271R; format: cell-based; details: mean ± SEM, n ≥ 3
T2 construct: GHRHR(23-423)-; HA signal peptide (replaces native signal M1-G22) (N); expressed in transfected cells; host or cells: HEK 293T, pcDNA3.1, transient
T2 sequence (Q02643 23-423 A271R): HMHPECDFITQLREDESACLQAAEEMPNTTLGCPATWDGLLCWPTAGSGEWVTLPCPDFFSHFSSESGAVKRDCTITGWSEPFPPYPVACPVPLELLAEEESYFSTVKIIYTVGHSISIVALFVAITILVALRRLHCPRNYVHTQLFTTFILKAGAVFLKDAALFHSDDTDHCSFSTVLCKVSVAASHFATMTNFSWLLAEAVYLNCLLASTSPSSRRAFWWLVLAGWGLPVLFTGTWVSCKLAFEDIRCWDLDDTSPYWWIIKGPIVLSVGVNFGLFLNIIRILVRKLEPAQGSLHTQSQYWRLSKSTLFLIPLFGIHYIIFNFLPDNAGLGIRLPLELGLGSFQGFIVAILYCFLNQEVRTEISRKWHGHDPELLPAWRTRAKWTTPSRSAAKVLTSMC
Source text: as §1, §2

T1 sequence (Q02643 23-423 T213A): as the sequence (Q02643 23-423 A271R) above, with T191A, R249A counted along it

CC[C@H](C)[C@H](NC(=O)[C@H](C)NC(=O)[C@H](CC(=O)O)NC(=O)[C@H](C)NC(=O)[C@@H](N)Cc1ccc(O)cc1)C(=O)N[C@@H](Cc1ccccc1)C(=O)N[C@H](C(=O)N[C@@H](CC(N)=O)C(=O)N[C@@H](CO)C(=O)N[C@@H](Cc1ccc(O)cc1)C(=O)N[C@@H](CCCNC(=N)N)C(=O)N[C@@H](CCCCN)C(=O)N[C@H](C(=O)N[C@@H](CC(C)C)C(=O)NCC(=O)N[C@@H](CCC(N)=O)C(=O)N[C@@H](CC(C)C)C(=O)N[C@@H](CO)C(=O)N[C@@H](C)C(=O)N[C@@H](CCCNC(=N)N)C(=O)N[C@@H](CCCCN)C(=O)N[C@@H](CC(C)C)C(=O)N[C@@H](CC(C)C)C(=O)N[C@@H](CCC(N)=O)C(=O)N[C@@H](CC(=O)O)C(=O)N[C@H](C(=O)N[C@@H](CCSC)C(=O)N[C@@H](CO)C(=O)N[C@@H](CCCNC(=N)N)C(=O)N[C@@H](CCC(N)=O)C(=O)N[C@@H](CCC(N)=O)C(=O)NCC(=O)N[C@@H](CCC(=O)O)C(=O)N[C@@H](CO)C(=O)N[C@@H](CC(N)=O)C(=O)N[C@@H](CCC(N)=O)C(=O)N[C@@H](CCC(=O)O)C(=O)N[C@@H](CCCNC(=N)N)C(=O)NCC(=O)N[C@@H](C)C(=O)N[C@@H](CCCNC(=N)N)C(=O)N[C@@H](C)C(=O)N[C@@H](CCCNC(=N)N)C(=O)N[C@@H](CC(C)C)C(N)=O)[C@@H](C)CC)C(C)C)[C@@H](C)O [GHRH, Growth hormone-releasing hormone]
EC50 [1]: 0.447 nM | Emax [1]: 91.48±4.55 % WT | EC50 [2]: 0.105 nM | Emax [2]: 100.81±1.19 % WT
